Assay results taken from publication PMC4826192 (Oncotarget, 2015).

Tests used:
EPHA3 = EPHA3 (Homo sapiens, UniProt P29320); experiment: In vitro kinase inhibition profile (biochemical); settings: read-out: Biochemical (IC50 nmol/L)
ERBB4 = ERBB4 (Homo sapiens, UniProt Q15303); experiment: In vitro kinase inhibition profile (biochemical); settings: read-out: Biochemical (IC50 nmol/L)
ERBB1 = ERBB1 (Homo sapiens, UniProt P00533); experiment: In vitro kinase inhibition profile (biochemical); settings: read-out: Biochemical (IC50 nmol/L)
EPHB2 = EPHB2 (Homo sapiens, UniProt P29323); experiment: In vitro kinase inhibition profile (biochemical); settings: read-out: Biochemical (IC50 nmol/L)
FAK = FAK (Homo sapiens, UniProt Q05397); experiment: In vitro kinase inhibition profile (biochemical); settings: read-out: Biochemical (IC50 nmol/L)
BTK = BTK (Homo sapiens, UniProt Q06187); experiment: In vitro kinase inhibition profile (biochemical); settings: read-out: Biochemical (IC50 nmol/L)
JAK2 = JAK2 (Homo sapiens, UniProt O60674); experiment: In vitro kinase inhibition profile (biochemical); settings: read-out: Biochemical (IC50 nmol/L)
MPNST cell line = experiment: Colony formation assay; format: cell-based; settings: 500 nmol/L, 24 hours treatment, 10 to 14 days drug-free
Description: (§1) . Cell viability was measured using Dojindo Cell Counting Kit 8. Graphs were generated as a percentage of the no drug (ND) control. Error bars represent standard error mean. Combined data from at least two independent experiments is shown. Note: For Figure 4A, error bars are included; however, they are too small to be seen. C. Indicated cell lines were grown to 60% confluency in serum free media overnight. […] After the drug treatments, cells were stimulated in drug free media containing 10%FBS. […] Representative western blots from two independent experiments are shown. D. 1,000 cells were plated, in triplicate, onto 100mm dishes and treated the next day with the indicated drugs in media containing 10%FBS for 24 hours. Following treatment, cells were cultured in drug-free media for 10 to 14 days. Colonies were scored with ColCount software from Oxford Optronix (Abingdon, UK). Combined data from the experiment carried out in triplicate is shown.
1,000 cells were plated, in triplicate, onto 100 mm dishes and allowed to adhere overnight. Cells were treated for 24 hours with the indicated drugs. Following treatment, cells were cultured in drug-free media for 10 to 14 days. The resulting colonies were fixed in 20% ethanol and stained with 2.5% crystal violet. Colonies were scored with ColCount software from Oxford Optronix (Abingdon, UK).

ARG = ARG (Homo sapiens, UniProt P42684); experiment: In vitro kinase inhibition profile (biochemical); settings: read-out: Biochemical (IC50 nmol/L)
EPHB3 = EPHB3 (Homo sapiens, UniProt P54753); experiment: In vitro kinase inhibition profile (biochemical); settings: read-out: Biochemical (IC50 nmol/L)
DDR2 = DDR2 (Homo sapiens, UniProt Q16832); experiment: In vitro kinase inhibition profile (biochemical); settings: read-out: Biochemical (IC50 nmol/L)
[1] = test system: DDLS, MPNST and LS141 cell lines; experiment: Cell viability assay, three sensitive cell lines; format: cell-based; settings: 500 nmol/L of all TKIs, 72 hours
FGFR4 = FGFR4 (Homo sapiens, UniProt P22455); experiment: In vitro kinase inhibition profile (biochemical); settings: read-out: Biochemical (IC50 nmol/L)
FYN = FYN (Homo sapiens, UniProt P06241); experiment: In vitro kinase inhibition profile (biochemical); settings: read-out: Biochemical (IC50 nmol/L)
p-AKT (Ser473) = experiment: Western immunoblotting of downstream effector in sarcoma cells; format: cell-based; settings: western blot
Description: […]. Cell viability was measured using Dojindo Cell Counting Kit 8. Dose response graphs were generated as a percentage of the no drug control. Error bars represent standard error mean. Combined data from three independent experiments is shown. B. Indicated cell lines were grown to 60% confluency in serum free media overnight. […] After the drug treatments, cells were stimulated in drug free media containing 10%FBS. Media containing no FBS was used as unstimulated control. […] Representative western blots from two independent experiments are shown. ND=No Drug, Uns=Unstimulated control.
as §1, with “Following treatment, cells were cultured in drug-free media for 10 to 14 days.” left out, “Combined data from the experiment carried out in triplicate is shown.” left out

DDR1 = DDR1 (Homo sapiens, UniProt Q08345); experiment: In vitro kinase inhibition profile (biochemical); settings: read-out: Biochemical (IC50 nmol/L)
YES = YES (Homo sapiens, UniProt P07947); experiment: In vitro kinase inhibition profile (biochemical); settings: read-out: Biochemical (IC50 nmol/L)
FER = FER (Homo sapiens, UniProt P16591); experiment: In vitro kinase inhibition profile (biochemical); settings: read-out: Biochemical (IC50 nmol/L)
FGFR1 = FGFR1 (Homo sapiens, UniProt P11362); experiment: In vitro kinase inhibition profile (biochemical); settings: read-out: Biochemical (IC50 nmol/L)
PYK2 = PYK2 (Homo sapiens, UniProt Q14289); experiment: In vitro kinase inhibition profile (biochemical); settings: read-out: Biochemical (IC50 nmol/L)
PDGFRα = PDGFRα (Homo sapiens, UniProt P16234); experiment: In vitro kinase inhibition profile (biochemical); settings: read-out: Biochemical (IC50 nmol/L)
HCK = HCK (Homo sapiens, UniProt P08631); experiment: In vitro kinase inhibition profile (biochemical); settings: read-out: Biochemical (IC50 nmol/L)
FMS = FMS (Homo sapiens, UniProt P07333); experiment: In vitro kinase inhibition profile (biochemical); settings: read-out: Biochemical (IC50 nmol/L)
FES = FES (Homo sapiens, UniProt P07332); experiment: In vitro kinase inhibition profile (biochemical); settings: read-out: Biochemical (IC50 nmol/L)
ITK = ITK (Homo sapiens, UniProt Q08881); experiment: In vitro kinase inhibition profile (biochemical); settings: read-out: Biochemical (IC50 nmol/L)
TIE2 = TIE2 (Homo sapiens, UniProt Q02763); experiment: In vitro kinase inhibition profile (biochemical); settings: read-out: Biochemical (IC50 nmol/L)
[2] = mouse, in vivo
Description: […]. […] […]. Tumor size was measured twice weekly by caliper.

SYK = SYK (Homo sapiens, UniProt P43405); experiment: In vitro kinase inhibition profile (biochemical); settings: read-out: Biochemical (IC50 nmol/L)
RON = RON (Homo sapiens, UniProt Q04912); experiment: In vitro kinase inhibition profile (biochemical); settings: read-out: Biochemical (IC50 nmol/L)

JAK2, sequence (O60674 whole entry): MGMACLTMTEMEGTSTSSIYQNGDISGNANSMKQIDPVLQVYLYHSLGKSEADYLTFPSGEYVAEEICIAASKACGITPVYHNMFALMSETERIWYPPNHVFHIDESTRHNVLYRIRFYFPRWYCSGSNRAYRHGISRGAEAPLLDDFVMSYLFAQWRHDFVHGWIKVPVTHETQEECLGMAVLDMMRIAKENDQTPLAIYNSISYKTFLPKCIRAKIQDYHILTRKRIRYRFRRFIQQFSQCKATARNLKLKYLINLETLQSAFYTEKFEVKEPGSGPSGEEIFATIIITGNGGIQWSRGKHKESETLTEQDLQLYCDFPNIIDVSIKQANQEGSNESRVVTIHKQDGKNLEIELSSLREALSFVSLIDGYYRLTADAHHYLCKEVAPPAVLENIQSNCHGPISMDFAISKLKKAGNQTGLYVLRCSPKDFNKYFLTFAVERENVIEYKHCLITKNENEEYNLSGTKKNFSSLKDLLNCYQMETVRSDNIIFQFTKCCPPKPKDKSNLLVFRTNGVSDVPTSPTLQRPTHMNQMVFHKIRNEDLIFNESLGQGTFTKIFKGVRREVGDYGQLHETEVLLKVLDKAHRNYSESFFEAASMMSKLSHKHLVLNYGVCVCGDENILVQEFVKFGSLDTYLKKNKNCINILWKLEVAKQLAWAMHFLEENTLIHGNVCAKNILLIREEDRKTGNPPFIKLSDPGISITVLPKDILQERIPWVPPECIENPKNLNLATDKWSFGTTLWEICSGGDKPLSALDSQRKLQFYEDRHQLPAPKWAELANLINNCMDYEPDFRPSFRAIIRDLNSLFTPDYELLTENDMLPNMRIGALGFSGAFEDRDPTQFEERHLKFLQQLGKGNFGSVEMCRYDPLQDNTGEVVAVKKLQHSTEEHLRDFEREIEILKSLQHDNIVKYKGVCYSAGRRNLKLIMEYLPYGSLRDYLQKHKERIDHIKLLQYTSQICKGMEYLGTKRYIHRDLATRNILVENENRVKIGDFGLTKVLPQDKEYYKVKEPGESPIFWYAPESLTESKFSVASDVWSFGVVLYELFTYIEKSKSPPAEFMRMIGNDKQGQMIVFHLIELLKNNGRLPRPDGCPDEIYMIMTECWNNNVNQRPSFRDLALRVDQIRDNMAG
EPHB3, sequence (P54753 34-998): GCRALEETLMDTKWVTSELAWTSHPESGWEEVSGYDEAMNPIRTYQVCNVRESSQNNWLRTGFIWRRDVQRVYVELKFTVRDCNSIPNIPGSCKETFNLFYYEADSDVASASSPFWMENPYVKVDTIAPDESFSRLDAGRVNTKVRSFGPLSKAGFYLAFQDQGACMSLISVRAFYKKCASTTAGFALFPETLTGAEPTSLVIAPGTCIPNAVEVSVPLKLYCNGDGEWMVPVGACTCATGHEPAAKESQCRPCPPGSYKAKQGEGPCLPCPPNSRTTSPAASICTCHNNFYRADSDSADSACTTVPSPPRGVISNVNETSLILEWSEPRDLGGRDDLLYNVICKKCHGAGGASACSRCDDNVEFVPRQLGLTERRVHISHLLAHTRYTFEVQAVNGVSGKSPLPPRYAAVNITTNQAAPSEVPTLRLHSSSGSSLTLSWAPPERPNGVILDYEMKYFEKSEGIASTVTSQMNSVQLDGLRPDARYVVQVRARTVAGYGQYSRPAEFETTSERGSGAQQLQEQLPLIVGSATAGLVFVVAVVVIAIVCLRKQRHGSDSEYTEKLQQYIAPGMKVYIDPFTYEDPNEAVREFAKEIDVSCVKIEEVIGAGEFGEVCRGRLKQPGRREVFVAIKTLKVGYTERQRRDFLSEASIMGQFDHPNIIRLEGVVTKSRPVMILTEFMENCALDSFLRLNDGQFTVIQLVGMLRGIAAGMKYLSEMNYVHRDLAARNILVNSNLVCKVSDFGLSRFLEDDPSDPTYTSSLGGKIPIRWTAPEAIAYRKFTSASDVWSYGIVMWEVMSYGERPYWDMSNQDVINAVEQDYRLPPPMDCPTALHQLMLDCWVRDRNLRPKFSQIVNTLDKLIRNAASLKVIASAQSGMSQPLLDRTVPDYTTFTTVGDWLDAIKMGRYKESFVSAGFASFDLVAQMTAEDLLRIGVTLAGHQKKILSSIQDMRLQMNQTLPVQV
FAK, sequence (Q05397 whole entry): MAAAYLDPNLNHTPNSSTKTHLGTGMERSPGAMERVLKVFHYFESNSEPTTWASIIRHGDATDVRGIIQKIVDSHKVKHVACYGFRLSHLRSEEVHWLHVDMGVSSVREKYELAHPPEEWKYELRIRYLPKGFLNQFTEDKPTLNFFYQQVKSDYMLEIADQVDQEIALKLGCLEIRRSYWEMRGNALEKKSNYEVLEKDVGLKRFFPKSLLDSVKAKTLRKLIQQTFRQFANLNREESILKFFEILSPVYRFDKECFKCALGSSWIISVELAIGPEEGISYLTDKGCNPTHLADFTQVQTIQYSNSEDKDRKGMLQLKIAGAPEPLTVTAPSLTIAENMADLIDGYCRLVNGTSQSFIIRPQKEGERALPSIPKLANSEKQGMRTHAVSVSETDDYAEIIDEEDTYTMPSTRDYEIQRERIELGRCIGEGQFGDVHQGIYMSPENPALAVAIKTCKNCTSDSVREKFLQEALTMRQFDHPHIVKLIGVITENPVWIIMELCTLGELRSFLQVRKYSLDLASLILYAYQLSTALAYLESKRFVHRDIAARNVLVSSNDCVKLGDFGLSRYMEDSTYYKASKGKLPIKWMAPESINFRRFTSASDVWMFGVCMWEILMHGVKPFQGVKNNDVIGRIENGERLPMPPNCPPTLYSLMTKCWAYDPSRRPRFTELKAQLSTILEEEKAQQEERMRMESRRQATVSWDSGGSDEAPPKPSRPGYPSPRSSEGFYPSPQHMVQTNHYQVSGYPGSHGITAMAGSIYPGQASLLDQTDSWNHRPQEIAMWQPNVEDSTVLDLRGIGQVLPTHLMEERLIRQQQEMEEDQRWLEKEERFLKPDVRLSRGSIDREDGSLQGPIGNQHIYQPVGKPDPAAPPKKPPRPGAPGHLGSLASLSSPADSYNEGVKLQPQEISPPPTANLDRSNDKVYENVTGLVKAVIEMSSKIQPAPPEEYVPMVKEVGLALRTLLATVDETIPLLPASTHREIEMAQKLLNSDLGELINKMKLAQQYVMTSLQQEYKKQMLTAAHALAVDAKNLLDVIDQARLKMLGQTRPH
FER, sequence (P16591 whole entry): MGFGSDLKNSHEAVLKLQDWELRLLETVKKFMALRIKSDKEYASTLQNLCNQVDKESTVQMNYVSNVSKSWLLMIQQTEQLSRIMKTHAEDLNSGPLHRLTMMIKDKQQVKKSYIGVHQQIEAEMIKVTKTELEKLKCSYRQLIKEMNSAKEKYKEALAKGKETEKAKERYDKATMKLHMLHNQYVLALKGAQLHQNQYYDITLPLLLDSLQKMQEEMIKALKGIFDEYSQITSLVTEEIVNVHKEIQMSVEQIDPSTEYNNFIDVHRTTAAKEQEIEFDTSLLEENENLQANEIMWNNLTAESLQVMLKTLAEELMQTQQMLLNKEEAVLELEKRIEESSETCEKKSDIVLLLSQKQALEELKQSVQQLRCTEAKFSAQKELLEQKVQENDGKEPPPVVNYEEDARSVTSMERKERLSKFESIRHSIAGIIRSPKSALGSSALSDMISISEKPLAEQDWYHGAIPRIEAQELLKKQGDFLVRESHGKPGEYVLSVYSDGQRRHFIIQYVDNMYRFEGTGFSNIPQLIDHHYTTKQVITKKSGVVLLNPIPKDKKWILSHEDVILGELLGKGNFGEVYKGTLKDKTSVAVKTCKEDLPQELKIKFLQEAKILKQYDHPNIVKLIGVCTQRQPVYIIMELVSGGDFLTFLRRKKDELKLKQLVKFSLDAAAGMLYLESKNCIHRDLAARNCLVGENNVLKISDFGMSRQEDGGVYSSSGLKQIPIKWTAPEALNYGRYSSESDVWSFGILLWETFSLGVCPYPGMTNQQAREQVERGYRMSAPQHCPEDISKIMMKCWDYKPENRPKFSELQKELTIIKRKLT
ITK, sequence (Q08881 whole entry): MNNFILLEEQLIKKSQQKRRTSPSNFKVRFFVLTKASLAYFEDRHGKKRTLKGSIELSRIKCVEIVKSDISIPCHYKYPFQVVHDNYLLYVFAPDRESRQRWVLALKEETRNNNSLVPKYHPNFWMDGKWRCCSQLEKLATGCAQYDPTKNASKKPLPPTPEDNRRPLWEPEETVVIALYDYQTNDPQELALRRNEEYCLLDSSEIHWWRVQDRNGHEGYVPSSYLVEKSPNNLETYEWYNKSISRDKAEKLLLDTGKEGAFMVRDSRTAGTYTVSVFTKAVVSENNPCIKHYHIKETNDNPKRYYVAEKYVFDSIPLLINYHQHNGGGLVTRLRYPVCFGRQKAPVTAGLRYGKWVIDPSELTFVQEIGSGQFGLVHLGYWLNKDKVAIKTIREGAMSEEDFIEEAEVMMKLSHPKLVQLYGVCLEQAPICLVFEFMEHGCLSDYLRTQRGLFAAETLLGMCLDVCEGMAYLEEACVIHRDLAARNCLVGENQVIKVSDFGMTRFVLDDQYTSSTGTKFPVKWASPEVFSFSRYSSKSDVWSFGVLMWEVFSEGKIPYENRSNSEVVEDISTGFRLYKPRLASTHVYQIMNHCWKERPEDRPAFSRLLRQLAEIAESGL

Compound: COCCNCc1ccc(-c2cc3nccc(Oc4ccc(NC(=O)C5(C(=O)Nc6ccc(F)cc6)CC5)cc4F)c3s2)nc1 [MGCD516, Sitravatinib]
- IC50 (EPHA3): 1 nmol/L
- IC50 (ERBB4): > 5000 nmol/L
- IC50 (ERBB1): > 5000 nmol/L
- IC50 (EPHB2): 10 nmol/L
- IC50 (FAK): > 10000 nmol/L
- IC50 (BTK): 304 nmol/L
- IC50 (JAK2): > 10000 nmol/L
- colony number (MPNST cell line): significant reduction in colony number
- IC50 (ARG): 4100 nmol/L
- IC50 (EPHB3): 249 nmol/L
- IC50 (DDR2): 0.5 nmol/L
- anti-proliferative effect, comparison of TKIs [1]: significant inhibition of proliferation as compared to crizotinib
- IC50 (FGFR4): > 5000 nmol/L
- IC50 (FYN): 339 nmol/L
- inhibition of downstream effectors such as p-AKT (Ser473), comparison with imatinib and crizotinib (p-AKT (Ser473); DDLS and MPNST): significantly better inhibition
- down-regulation of p-AKT (Ser473) (p-AKT (Ser473); increasing concentrations of MGCD516): significant down-regulation of p-AKT (Ser473)
- IC50 (DDR1): 29 nmol/L
- IC50 (YES): 298 nmol/L
- IC50 (FER): 1590 nmol/L
- IC50 (FGFR1): > 5000 nmol/L
- IC50 (PYK2): 364 nmol/L
- IC50 (PDGFRα): 30 nmol/L
- IC50 (HCK): 1110 nmol/L
- IC50 (FMS): 2290 nmol/L
- IC50 (FES): 2010 nmol/L
- IC50 (ITK): > 5000 nmol/L
- IC50 (TIE2): 274 nmol/L
- toxicity as determined by animal weight [2]: did not result in toxicity
- IC50 (SYK): > 10000 nmol/L
- IC50 (RON): 43 nmol/L
